Data reported in the NIST ThermoML archive (doi:10.1021/acs.jced.7b01035).

Assay: wn = mass fraction of the nth substance listed
Conditions: 500 kPa, Liquid, Concentric cylinders viscometry

NCCCO [3-amino-1-propanol] + O
viscosity [mPa·s]
Conditions | w1 = 0.1 | w1 = 0.2 | w1 = 0.3 | w1 = 0.4 | w1 = 0.5 | w1 = 0.6 | w1 = 0.7 | w1 = 0.8 | w1 = 0.9 | w1 = 1
338.15 K | 0.61 | 0.76 | 0.99 | 1.47 | 2.03 | 2.74 | 3.67 | 4.79 | 5.43 | 6.05
343.15 K | 0.58 | 0.73 | 0.9 | 1.32 | 1.81 | 2.39 | 3.15 | 4.08 | 4.61 | 4.84
348.15 K | 0.57 | 0.7 | 0.82 | 1.2 | 1.64 | 2.09 | 2.72 | 3.51 | 3.93 | 4.17
353.15 K | 0.55 | 0.67 | 0.75 | 1.08 | 1.46 | 1.85 | 2.37 | 3.03 | 3.39 | 3.63
358.15 K | 0.41 | 0.54 | 0.69 | 0.99 | 1.32 | 1.68 | 2.09 | 2.7 | 2.93 | 3.19
363.15 K | 0.39 | 0.49 | 0.65 | 0.93 | 1.25 | 1.51 | 1.86 | 2.4 | 2.56 | 2.73
368.15 K | 0.37 | 0.47 | 0.63 | 0.88 | 1.16 | 1.37 | 1.66 | 2.13 | 2.24 | 2.52
373.15 K | 0.35 | 0.44 | 0.59 | 0.82 | 1.05 | 1.26 | 1.49 | 1.91 | 1.98 | 2.25
